Here are results for two compounds from US20240342121A1, “THE USE OF BETA-HYDROXYBUTYRATES FOR THE TREATMENT OR PREVENTION OF ANEURYSMS AND DISSECTIONS” (priority 2021, published 2024).

Entries after “also recorded” stand apart in the source; their conditions may differ.

For one data set, the system named is normal SMCs (NC). Description: Caspase 3 activity assay on normal SMCs. It counts as cell-based. The note with it: FIG. 2I. The protocol: FIGS. 2A-2L. (a) Cytotoxicity assay of normal smooth muscle cells (NS) and senescent smooth muscle cells (SMCs). Replicative senescent SMCs (RS) and premature senescent SMCs, stimulated by H2O2 (HP), arsenic (Ars), and Nutlin 3a (Nut) treatment were treated with βHB, s-βHB, and ABT-737. (b) Flow cytometry analysis of apoptosis by βHB or s-βHB in radiation (10 Gy)-induced senescent SMC. (c) Quantitation of apoptotic cell and senescent cell after treating βHB and s-βHB in radiation-induced senescent SMC. (d) Representative aorta image of AII-infused mice with post-treatment of ABT-737, βHB and s-βHB. (e) External diameter of abdominal aorta infused with AII and post-treated with ABT-737 βHB and s-βHB. (f) SA-βGal activity assay of the whole aorta infused with AII, and post-treated with ABT-737, KD, or KE. (g) Quantitation of senescent area on aorta of AII-infused mice, and post-treated with KD, KE and ABT-737. (h) TUNEL assay on the abdominal aorta of AII infused mice, and treated with ABT-737, βHB, or s-βHB. SM-α Actin (SMA) and DAPI are co-stained after TUNEL reaction. (i) Caspase 3 activity assay on normal SMCs (NC) treated with βHB, or s-βHB, and ABT-737 comparing to normal cells pretreated with Nutlin-3a. (j) Caspase 3 activity assay on senescent SMCs (SNC) treated with βHB, or s-βHB, and ABT-737 compared to senescent cells pretreated with pifithrin-α. (k) Western blot analysis for p53 and puma expression on abdominal aorta tissue from mice treated with AII or KE. (I) Immunohistochemistry staining for puma expression on abdominal aorta infused by AII and post-treated with KE.
To overcome the anti-apoptotic barrier of senescence cells, senolytics usually target p53/Bcl2 cascades. Moreover, p53 is considered as a barrier to prevent apoptosis in senescence cells. Therefore, it was investigated if βHB-mediated apoptosis is p53 dependent. […] To further validate p53 dependent apoptosis on AAA, p53 activation and puma expression were investigated. […] In addition, inflammatory response accompanying the apoptosis of senescence cells was observed specifically in the abdominal aorta tissue, while systemic inflammation decreased during ketotherapy (FIGS. 10A-F). […] Ketotherapy can lower the blood pressure caused by AII infusion, which is not the case with ABT-737 (FIGS. 10H-J).

The subject of data set [1] is angiotensin II (AII)-induced AAA. Description: AII-induced AAA mouse model, post-treatment. The note with it: injection every other day for two weeks, FIG. 2E. It counts as in vivo.
Data set [2] shares this test system. Briefly: AII-induced AAA mouse model, post-treatment. The data set is classed as in vivo. The text has this: To determine if senescence is a major cause of aneurysm development, the association between senescence and aneurysms using the angiotensin II (AII)-induced AAA model was investigated. Mice were infused AII for four weeks using osmotic mini-pump implantation into Apoe^−/− transgenic mouse.
To investigate the therapeutic potential of ketotherapy for abdominal aortic aneurysm (AAA), Ketogenic-diet (KD) and Ketone-ester (KE) were provided to angiotensin II (AII)-induced mouse model of AAA (FIG. 6). […] After completing AII infusion, the mice were post-treated with KD and KE for two to four weeks.
To investigate the time-dependent reduction of aorta diameter, the inner diameter of the aorta using ultrasound analysis was measured.

Data set [3] deals with aortic dissection (TAD, AAD). Briefly: BAPN + AngII mouse model of aortic dissection. The data set is classed as in vivo. The protocol: (a) schematic description of aortic dissection model and ketone treatment. Five-week-old C57BL/6 mice were continuously treated with β-aminopropionitrile (BAPN, 3 g/L/day in drinking water) for 28 days. To test the impacts of ketone body, BAPN-treated mice at day 17 to day 31 were given ketone ester (KE, D-BHB 1-3 butanediol monoester) (20 g/L and 50 gL at 5 mL per day) in drinking water. Further, the BAPN-treated mice, with or without ketone treatment, were continuously infused with angiotensin (AngII, 1.44 mg/kg/day) for three days via subcutaneously implanted osmotic pumps). Three days after AngII infusion, the mice were euthanized to assay for aortic dissection.
Five week old C57BL/6 mice were continuously treated with β-aminopropionitrile (BAPN, 3 g/L/day in drinking water)) for 28 days. To test the impacts of ketone body, BAPN-treated mice at day 17 to day 31 were given ketone ester (KE, D-BHB 1-3 butanediol monoester) (20 g/L and 50 g/L) in drinking water. Further, the BAPN-treated mice, with or without ketone treatment, were continuously infused with angiotensin (AngII, 1.44 mg/kg/day) for three days via subcutaneously implanted osmotic pumps). Three days after AngII infusion, the mice were euthanized for assay aortic dissection.

The test system of a further data set is CaCl2-induced AAA. Briefly: CaCl2-induced AAA animal model, post-treatment. It counts as in vivo, mouse. The protocol:
FIGS. 5A-5J. (a) Representative image of aorta which developed CaCl2)-induced AAA, and post-treated with KD, KE, βHB, s-βHB, or ABT-737. KD is provided to mice for 4 weeks, KE is administrated with drinking water, βHB, s-βHB or ABT-737 are IP injected for 2 weeks with 48h intervals. (b) Incidence of AAA by CaCl2) treatment and proportion of mice recovered from the AAA after post-treatment of KD, KE, βHB and s-βHB for 2 weeks. (c) Time-dependent observation of inner diameter after CaCl2) treatment and post-treatment of KD or KE (28˜56 days after surgery). (d) Comparison of ultrasound images of CaCl2)-induced AAA to the identical aorta post-treated with βHB for 2 weeks. (e) H&E staining of aorta from the mice developed with CaCl2)-induced AAA, and post-treated with KD, KE, βHB, and s-βHB. (f) SA β-Gal activity assay on aorta which developed CaCl2)-induced AAA, and post-treated with KD, KE, βHB, s-βHB, or ABT-737. (g) Quantitation of senescent area on aorta developed with CaCl2)-induced AAA, and post-treated with KD, KE, βHB, s-βHB. (h) Verhoeff Van Gieson/EVG staining of abdominal aorta developed with CaCl2)-induced AAA, post-treated with KD, KE, βHB and s-βHB. (i) Average number of elastic fibers on abdominal aorta presented at FIG. 5H. (j) Measurement of Pulse Wave Velocity (PWV) on CaCl2)-infused mice with post-treatment of KD, KE, βHB, and s-βHB.
(§1) To confirm the possibility that the therapeutic effect of βHB on AAA is not only applied to AII-induced AAA, the CaCl2)-induced AAA animal model was also examined as well (FIG. 5A).
To further validate the therapeutic efficacy of s-βHB on aneurysms, we used a CaCl2-induced AAA animal model as well as an angiotensin II infusion model. […] Two-way ANOVA, s-βHB vs βHB, #P<0.01, n=10. Since the elimination of senescent SMCs is critical for the recovery of AAA, we investigated that s-βHB is also effective to remove senescent cells in CaCl2)-induced aneurysms. […] Student's T-test for s-βHB vs βHB, ^#P<0.05, n=8.

For data set [4] the following is noted: Soto-Mota et al. 2019; cited from earlier work.
Data set [5] has as its system AII-induced AAA development. Briefly: Pretreatment with ketotherapy in AII-induced AAA. It counts as in vivo, mouse. The note with it: FIG. 8A-C.
From the text: Senescence is considered to be major risk factor that promotes AAA development. […] To determine whether vascular senescence is critical for AAA formation, senescence was prevented by pretreatment with ketotherapy.
as §1

Data set [6] in a line: Metabolic alterations by post-treatment. It counts as in vivo, mouse. To be noted: four weeks, FIG. 7. The source says:
In order to identify the primary factors for reversing AAA formation, metabolic alterations by post-treatment were investigated. […] Thus, abnormal lipid metabolism caused by KD is unlikely required or helpful for AAA recovery.

With `CN(C)CC[C@H](CSc1ccccc1)Nc1ccc(S(=O)(=O)NC(=O)c2ccc(N3CCN(Cc4ccccc4-c4ccc(Cl)cc4)CC3)cc2)cc1[N+](=O)[O-]` [ABT-737, reference compound], the “apoptosis in normal cells after p53 stabilization” value in the data set on normal SMCs (NC) (after p53 stabilization by Nutlin 3a) is listed as “triggers apoptosis”. Moreover, the “apoptosis in normal cells (NC)” value in the data set with normal SMCs (NC) (without Nutlin 3a) is “did not induce apoptosis”. Besides, the “external diameter of the abdominal aorta” value in data set [1] is “significantly reduced”. In data set [2] (FIG. 2H), the “TUNEL assay, apoptosis of senescent plaque in the aneurysm” value is reported as “induced targeted apoptosis of senescent plaque”. Also, the “branched elastic fibers, Verhoeff Van Gieson/EVG stain” value in data set [2] (FIG. 3C) is reported as “less branched elastic fibers”. In addition, in data set [2] (FIG. 3D), the “number of elastic layers / elastic recovery” value is “less effective on elastic recovery”. Further, in data set [2] (blood clots inside aneurysm plaque, FIG. 3B), the aortic dissection entry is listed as “caused aortic dissection”. For the same compound, in data set [2] (injected), the “volume of aneurysm plaque” value is “successfully reduced”. Moreover, the “AAA on whole aorta images” value in data set [2] (injected every other day for two weeks, FIG. 2D) is “successfully rescued”. Further, in data set [2] (injected mice, FIG. 3A), the “mice with abdominal rupture resulting in sudden death” value is listed as 30%.

In the case of `C[C@@H](O)CCOC(=O)C[C@@H](C)O` [KE, [(3R)-3-hydroxybutyl] (3R)-3-hydroxybutanoate], the “incidence of TAD” value in data set [3] (20 g/L and 50 g/L in drinking water, day 17 to day 31, FIG. 19B) was “significantly reduces”. In addition, the “incidence of AAD” value in data set [3] (20 g/L and 50 g/L in drinking water, day 17 to day 31, FIG. 19C) is “significantly reduces”. Moreover, the survival rate entry in data set [3] (high dose 50 g/L, FIG. 19D) is given as “significantly increase”. Further, the “recovery from CaCl2-induced AAA” value in the data set with CaCl2-induced AAA (FIGS. 5A and 5B) was “Effective recovery”. Also, in the data set on CaCl2-induced AAA (post-treatment after four weeks, FIG. 5C), the AAA progression entry is “inhibited AAA progression”. For the same compound, in data set [4], the “metabolic fate (hydrolysis)” value is “complete enzymatic hydrolysis to release R-βHB and R-butane-1,3-diol”. For the same compound, in data set [2] (FIG. 1D), the “aneurysm formation, ultrasound images of identical mouse aorta” value is “reverts aneurysm formation”. In addition, in data set [2] (FIG. 3H, FIG. 18A), the “abdominal aorta stiffness, Pulse Wave Velocity (PWV)” value is listed as “ameliorated vascular stiffness; also recorded: reversed aneurysm-associated aortic stiffness”. For the same compound, in data set [2] (abdominal aorta, post-treatment, FIG. 3E), the “SMC markers (HEXIM1, Calponin 1, SM α-Actin) and dedifferentiation markers (Oct4, MMP2), Western blot” value was “reversed all the markers of dedifferentiation and simultaneously recovered SMC markers”. Further, the “degenerative markers in PVAT” value in data set [2] (abdominal versus thoracic PVAT, FIG. 3G) was “specifically reverses degenerative markers, col1A1, RUNX2, and PU.1 in abdominal perivascular adipose (PVAT), not in thoracic PVAT”. Also, the “recovered proportion of AII-induced AAA” value in data set [2] (post-treatment 2 to 4 weeks after 4 weeks AII infusion, C57Bl6 ApoE−/− mice, AAA incidence 60%, FIG. 1A) came out at 26%. In addition, the “proportion of AII-induced AAA” value in data set [2] (post-treatment 2 to 4 weeks, FIG. 1A) is recorded as “successfully reduced”. For the same compound, the “enlarged external diameter of AAA” value in data set [2] (post-treatment of KD and KE, FIG. 1C) is given as “decreased significantly”. In addition, in data set [2] (post-treatment, FIG. 3F), the “collagen network, Masson's trichrome staining” value was “reconstituted at the perivascular area”. For the same compound, in data set [2] (post-treatment, FIGS. 17A-17B), the “myofibroblast, SM α-Actin and FSP co-staining in aortic wall” value was “increases”. For the same compound, the “p53 activation and puma expression on abdominal aorta” value in data set [2] (post-treatment, Western blot and IHC, FIG. 2K) is “activated phosphorylation of p53 and elevated puma expression”. The “AII-induced AAA development” value in data set [5] is reported as “strongly inhibited”. The “metabolic alterations (body weight, fat mass, blood glucose, TG, liver lipid, insulin resistance)” value in data set [6] is reported as “did not cause metabolic changes such as insulin resistance”.
